Measured values published in PMC2962730 (Journal of neurochemistry, 2010).
Numbering of substitutions follows the chain as printed.

Legend:
VAChT C391Y = conditions: ref Zhu et al. (2001); cited from earlier work
hVAChT Y60A = molecular target: T1, hVAChT Y60A (Homo sapiens, UniProt Q16572, Y60A); assay: [3H]vesamicol saturation binding; conditions: pH 7.4
T1 sequence (Q16572 1-532 Y60A): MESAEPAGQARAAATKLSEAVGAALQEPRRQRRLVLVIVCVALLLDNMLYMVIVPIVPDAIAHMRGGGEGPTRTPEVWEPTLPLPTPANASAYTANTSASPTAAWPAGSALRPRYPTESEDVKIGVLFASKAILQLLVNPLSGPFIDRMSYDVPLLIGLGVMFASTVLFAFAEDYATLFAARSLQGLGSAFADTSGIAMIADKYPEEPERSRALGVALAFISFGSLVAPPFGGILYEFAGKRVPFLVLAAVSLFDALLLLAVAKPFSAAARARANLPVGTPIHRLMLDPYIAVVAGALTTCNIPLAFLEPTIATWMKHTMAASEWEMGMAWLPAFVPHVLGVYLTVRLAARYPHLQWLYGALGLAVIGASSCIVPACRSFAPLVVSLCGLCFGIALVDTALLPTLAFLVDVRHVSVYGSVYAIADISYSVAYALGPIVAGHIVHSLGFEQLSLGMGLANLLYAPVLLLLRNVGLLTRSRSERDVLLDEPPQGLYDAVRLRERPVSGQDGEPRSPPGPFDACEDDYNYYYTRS

hVAChT F392A = molecular target: T2, hVAChT F392A (Homo sapiens, UniProt Q16572, F392A); assay: [3H]vesamicol saturation binding; conditions: pH 7.4
T2 sequence (Q16572 1-532 F392A): T1 sequence (Q16572 1-532 Y60A) with A60Y, F392A

hVAChT W325H = molecular target: T3, hVAChT W325H (Homo sapiens, UniProt Q16572, W325H); assay: [3H]vesamicol saturation binding; conditions: pH 7.4
T3 sequence (Q16572 1-532 W325H): T1 sequence (Q16572 1-532 Y60A) with A60Y, W325H

[1] = test system: rat VAChT (rVAChT) W331 mutants; conditions: mutations of W331 in rVAChT; ref Ojeda et al. 2004; cited from earlier work
hVAChT Y60H = molecular target: T4, hVAChT Y60H (Homo sapiens, UniProt Q16572, Y60H); assay: [3H]ACh transport; assay type: biochemical
T4 sequence (Q16572 1-532 Y60H): T1 sequence (Q16572 1-532 Y60A) with A60H

hVAChT K317A = molecular target: T5, hVAChT K317A (Homo sapiens, UniProt Q16572, K317A); assay: [3H]ACh transport; assay type: biochemical
T5 sequence (Q16572 1-532 K317A): T1 sequence (Q16572 1-532 Y60A) with A60Y, K317A

[2] = read-out: KM, Michaelis-Menten constant for ACh transport, pH 7.4

| Vmax/Bmax, ACh transport normalized to Bmax (hVAChT Y60H; pH 7.4) [min⁻¹] | Km (hVAChT Y60H; [2]) [µM] | Vmax/Bmax, ACh transport normalized to Bmax (hVAChT K317A; pH 7.4) [min⁻¹] | Km (hVAChT K317A; [2]) [µM] | SMILES | vesamicol binding (VAChT C391Y) | Bmax, maximal specific [3H]vesamicol binding (VAChT expression level) (hVAChT Y60A) [pmol/mg] | Bmax, maximal specific [3H]vesamicol binding (VAChT expression level) (hVAChT F392A) [pmol/mg] | Bmax, maximal specific [3H]vesamicol binding (VAChT expression level) (hVAChT W325H) [pmol/mg] | decrease in ACh affinity (equilibrium) [1] [fold] |
| --- | --- | --- | --- | --- | --- | --- | --- | --- | --- |
| – | – | – | – | O[C@@H]1CCCC[C@H]1N1CCC(c2ccccc2)CC1 (racemic) [vesamicol, ( )-trans-2-(4-phenylpiperidino)cyclohexanol] | does not bind vesamicol | 31 ± 2 | 93 ± 5 | 22 ± 1 | – |
| 3.1 ± 0.6 | 720 ± 530 | 17.8 ± 3.9 | 3200 ± 1200 | CC(=O)OCC[N+](C)(C)C [ACh, acetylcholine] | – | – | – | – | ≤ 9 |
